Results published in patent publication US7947839B2, “Heterocyclic-substituted bis-1,8 naphthalimide compounds, antibody drug conjugates, and methods of use” (Genentech, Inc., priority 2004, dated 2011).
Where a name gives a salt, the structure may show the parent alone. Read-outs that look alike come from different tables or passages of the source.

Tested on: BT474, H460, HCT116, HUVEC, LNCAP, MCF7, and PC3 cells
Assay: free test compound cell-based assay, 7 tumor cell panel (CellTiter-Glo)
Set-up: species or system Human
Conditions: NSA = no significant activity; for IC50: Homo sapiens
Protocol: Heterocyclic-substituted bis-1,8-naphthalimide compounds of Formula XV in Table 2 were prepared and tested for in vitro activity against a panel of tumor cells (Example 110).
Alternatively, the efficacy of compounds of the invention can be assayed by the following free test compound cell-based assay protocol
• 1. Prepare each cell line (BT474, H460, HCT116, HUVEC, LNCaP, MCF7, and PC3) at 1 k cells/well in separate plates with Complete Media (CM): RPM1 […]+10% FBS (Fetal Bovine Serum)+1% of 200 mM L-Glutamine. Plate number depends on test compounds provided by submitter. • 2. Detach prospective cell lines by first removing the media. When the flask is empty of media, begin rinsing out individual flasks with 5 mL sterile PBS. Move the PBS around within the flask to rinse well. Decant the PBS and add aseptically 5 mL of Accutase/flask. Make sure the Accutase covers the entire flask. • 3. Immediately place the flask(s) into a 37° C. incubator to allow cells to detach for 5-7 minutes. • 4. Post 5-7 minutes, remove flask(s) from the incubator and begin harvesting the detached cells using a serological pipette. Pipette up and down along the back of the flask to facilitate cell detachment. Pipette the Accutase containing cells into a sterile 50 mL conical tube/cell line. Pipette 10 mL of sterile PBS and re-rinse the flask to obtain remaining cells and dispense it into the same 50 mL conical tube/cell line for a total volume of 15 mL/tube/cell line. • 5. After each cell line has been allocated to a designated tube, take out 100 μL/tube/cell line for the cell counts. While the cell counts are being calculated, centrifuge the 50 mL tubes at 1000 rpm at 4° C. with a high brake. • 6. When centrifugation and cell calculations are completed, decant excess liquid and resuspend the cell pellet(s) using 5 mL CM, depending on calculations. • 7. Using a 5 mL syringe and an 18 G ½ needle, strain the cells to help prevent aggregation. Further strain by using a […] cell filter to block out any huge aggregates not broken down by the needle. • 8. After cell straining and filtering, take out calculated amount for a 1 k cells/well into fresh media. Take the media containing cells and load 100 μL/well into a bottom tissue culture treated flat 96 well plate. • 9. Immediately place in a 37° C. incubator overnight to allow the cells to adhere to the tissue culture treated 96 well plates. Day 2: • 1. Test compounds are submitted at 10 mM in sterile DMSO. • 2. DMSO as negative control and a positive standard are used in every assay! • 3. Prepare a 1:1000 fold dilution for each test compound, control, and standard for a 10e-5 M starting point. Do a 1:100 first, then a 1:10. • 4. Prior to diluting samples, vortex the samples and the controls for a homogeneous mixture. Note any sample that will not solubilize and/or stay in suspension. • 5. When the samples are at 10e-5 M, vortex each tube well and spin down fluid to ensure sample remains in tacked. Manual Dilution Protocol: • 1. After the tubes are at a final 1:1000 (10e-5 M) dilution, load the first column of the microtube box with the prospective sample. Load DMSO and positive control in singlets. The test compounds are loaded in duplicates. Load the remaining empty microtube racks with 540 μL of media to prepare for a serial dilution of 1:10. • 2. Agitate and transfer 60 μL from column 1 into successive wells containing 540 μL of media (1:10). Therefore, transfer 60 μL of column 1 into 540 μL of column 2. Resuspend column 2 about 10-15×'s then transfer 60 μL from column 2 to column 3 etc. Automated Dilution Protocol: • 1. Once the tubes are at a final 1:1000 (10e-5 M), load the first column of the microtube box with the prospective sample. Load DMSO and positive control in singlets. The compounds are loaded in duplicates. Load the remaining empty microtube racks manually with 540 μL of media to prepare for the automated serial dilution of 1:10 (see above diagram). • 2. […]

[1] = average linear IC50 across the 7 tumor cell panel, read-out: Avg.
[2] = average log IC50 across the 7 tumor cell panel, read-out: Avg. (log IC50) (converted)
[3] = average linear IC50 across the 7 tumor cell panel
[4] = average log IC50 across the 7 tumor cell panel

SMILES	IC50 [1] [nM]	IC50 [2] [nM]	Avg. (nM) [3]	Avg. (log IC50) [4]
CN1CCN(c2ccc3c4c(cccc24)C(=O)N(CCNCCNCCN2C(=O)c4cccc5c(N6CCN(C)CC6)ccc(c45)C2=O)C3=O)CC1 [Compound 60, N, N′-(bis-aminoethyl-1,2-ethanediamrne)-bis-4-(4-methylpiperazino)-1,8 naphthalimide]	1.05	1.05	–	–
C[C@H](N)C(=O)N(CCCNCCN1C(=O)c2cccc3c(N4CCOCC4)ccc(c23)C1=O)CCN1C(=O)c2cccc3c(N4CCOCC4)ccc(c23)C1=O [Compound 54e, N, N′-(N-alanyl, bis-aminoethyl-1,3-propanediamine)-bis-4-morpholino-1,8 naphthalimide]	126	126	–	–
CC(=O)c1ccc2c3c(cccc13)C(=O)N(CCNCCCNCCN1C(=O)c3cccc4c(N5CCOCC5)ccc(c34)C1=O)C2=O [Compound 62, N, N′-(bis-aminoethyl-1,3-propanediamine)-4-acetyl,4-morpholino-1,8 naphthalimide]	4.57	4.57	–	–
O=C1c2cccc3c(N4CCOCC4)ccc(c23)C(=O)N1CCNCCCN(CCCS)CCN1C(=O)c2cccc3c(N4CCOCC4)ccc(c23)C1=O [Compound 55a, N, N′-(N-3-mercaptopropyl, bis-aminoethyl-1,3-propanediamine)-bis-4-morpholino-1,8 naphthalimide]	57.5	57.5	–	–
O=C1c2cccc3c(N4CCNCC4)ccc(c23)C(=O)N1CCNCCNCCN1C(=O)c2cccc3c(N4CCNCC4)ccc(c23)C1=O [Compound 58b, N, N′-(bis-aminoethyl-1,2-ethanediamine)-bis-4-piperazino-1,8 naphthalimide]	26.9	26.9	–	–
O=C1c2cccc3c(-n4ccnc4)ccc(c23)C(=O)N1CCNCCCNCCN1C(=O)c2cccc3c(-n4ccnc4)ccc(c23)C1=O [Compound 24b, N, N′-(bis-aminoethyl-1,3-propanediamine)-bis-(4-N-imidazolyl)-1,8 naphthalimide]	0.41	0.407	–	–
O=C1c2cccc3c(N4CCOCC4)ccc(c23)C(=O)N1CCOCCOCCN1C(=O)c2cccc3c(N4CCOCC4)ccc(c23)C1=O [Compound 54b, N, N′-(3,6-dioxaoctanylene)-bis-4-morpholino-1,8 naphthalimide]	–	–	NSA	NSA
O=C1c2cccc3c(O)ccc(c23)C(=O)N1CCNCCCNCCN1C(=O)c2cccc3c(-n4ccnc4)ccc(c23)C1=O [Compound 65, N, N′-(bis-aminoethyl-1,3-propanediamine)-4-(N-imidazolyl)-4-hydroxyl-1,8 naphthalimide]	288	288	–	–
O=C1c2cccc3c(N4CCOCC4)ccc(c23)C(=O)N1CCNCCCN(CCN1C(=O)c2cccc3c(N4CCOCC4)ccc(c23)C1=O)C(=O)C(F)(F)F [Compound 54h, N, N′-(N-trifluoromethylacetyl, bis-aminoethyl-1,3-propanediamine)-bis-4-morpholino-1,8 naphthalimide]	309	309	–	–
O=C(CN1C(=O)c2cccc3c(N4CCOCC4)ccc(c23)C1=O)NCCCNC(=O)CN1C(=O)c2cccc3c(N4CCOCC4)ccc(c23)C1=O [Compound 34, N, N′-(bis-2-acetamido-1,3-propanediamine)-bis-4-morpholino-1,8 naphtbalimide]	2190	2190	–	–
CCN(CCCNCCN1C(=O)c2cccc3c(N4CCOCC4)ccc(c23)C1=O)CCN1C(=O)c2cccc3c(N4CCOCC4)ccc(c23)C1=O [Compound 30a, N, N′-(N-ethyl, bis-aminoethyl-1,3-propanediamine)-bis-4-morpholino-1,8 naphthalimide]	3.98	3.98	–	–
CC(=O)N1CCN(c2ccc3c4c(cccc24)C(=O)N(CCNCCCNCCN2C(=O)c4cccc5c(N6CCN(C(C)=O)CC6)ccc(c45)C2=O)C3=O)CC1 [Compound 63c, N, N′-(bis-aminoethyl-1,3-propanediamine)-bis-4-(4-acetylpiperazino)-1,8 naphthalimide]	1.1	1.1	–	–
O=C(CC(=O)NCCN1C(=O)c2cccc3c(N4CCOCC4)ccc(c23)C1=O)NCCN1C(=O)c2cccc3c(N4CCOCC4)ccc(c23)C1=O [Compound 35, N, N′-(bis-ethyl, malondiamide)-bis-4-morpholino-1,8 naphthalimide]	–	–	NSA	NSA
CN1CCN(c2ccc3c4c(cccc24)C(=O)N(CCNCCNCCN2C(=O)c4cccc5c(Br)ccc(c45)C2=O)C3=O)CC1 [Compound 61, N, N′-(bis-aminoethyl-1,2-ethanediamine)-4-piperazino,4-bromo-1,8 naphthalimide]	40.7	40.7	–	–
O=C(CN1C(=O)c2cccc3c(N4CCOCC4)ccc(c23)C1=O)NCCNCCCN1C(=O)c2cccc3c(N4CCOCC4)ccc(c23)C1=O [Compound 38]	1820	1820	–	–
O=C1c2cccc3c(N4CCOCC4)ccc(c23)C(=O)N1CCN1C=[N+](CCN2C(=O)c3cccc4c(N5CCOCC5)ccc(c34)C2=O)CCC1 [Compound 57, N, N′-(bis-aminoethyl-1,4,5,6-tetrahydropyrimidinium)-bis-4-morpholino-1,8 naphthalimide]	468	468	–	–
O=C1c2cccc3c(N4CCNCC4)ccc(c23)C(=O)N1CCN1C=[N+](CCN2C(=O)c3cccc4c(N5CCNCC5)ccc(c34)C2=O)CCC1 [Compound 59, N, N′-(bis-aminoetbyl-1,4,5,6-tetrahydropyrimidinium)-bis-4-piperazino-1,8 naphthalimide trifluoroacetate salt]	1.51	1.51	–	–
CN1CCN(c2ccc3c4c(cccc24)C(=O)N(CCNCCCNCCN2C(=O)c4cccc5c(N6CCN(C)CC6)ccc(c45)C2=O)C3=O)CC1 [Compound 24a]	0.71	0.708	–	–
Nc1ccc2c3c(cccc13)C(=O)N(CCNCCCNCCN1C(=O)c3cccc4c(N5CCOCC5)ccc(c34)C1=O)C2=O [Compound 56b, N, N′-(bis-aminoethyl-1,3-propanediamine)-4-amino, 4-morpholino-1,8 naphthalimide]	18.6	18.6	–	–
O=C1c2cccc3c(N4CCOCC4)ccc(c23)C(=O)N1CCNCCNCCN1C(=O)c2cccc3c(N4CCOCC4)ccc(c23)C1=O [Compound 54a, N, N′-(bis-aminoethyl-1,2-ethanediamine)-bis-4-morpholino-1,8 naphthalimide]	22.9	22.9	–	–
COCCOCCOCC(=O)N(CCCNCCN1C(=O)c2cccc3c(N4CCOCC4)ccc(c23)C1=O)CCN1C(=O)c2cccc3c(N4CCOCC4)ccc(c23)C1=O [Compound 54g, N, N′-(N-methylethoxyethoxyacetyloxy, bis-aminoethyl-1,3-propanediamine)-bis-4-morpholino-1,8 naphthalimide]	692	692	–	–
CC(=O)N1CCN(c2ccc3c4c(cccc24)C(=O)N(CCN2C=[N+](CCN4C(=O)c5cccc6c(N7CCN(C(C)=O)CC7)ccc(c56)C4=O)CC2)C3=O)CC1 [Compound 63b, N, N′-(bis-aminoethy-4,5-dihydro-imidazolium)-bis 4-(4-acetylpiperazino)-1,8 naphthaliinide]	251	251	–	–
O=C1c2cccc3c(N4CCOCC4)ccc(c23)C(=O)N1CCNCCCNCCN1C(=O)c2cccc3c(N4CCOCC4)ccc(c23)C1=O [Compound 20, N, N′-(bis-aminoethyl-1,3-propanediamine)-bis-4-morpholino-1,8 naphthalimide]	2.57	2.57	–	–
